Source: PMC9127750, “Structure-based design of CDC42 effector interaction inhibitors for the treatment of cancer” (Cell reports, 2022)
Values joined by “and” are separate entries in the source; they are usually repeats but may differ in a detail not shown here. Identical values can stand only once.

Tested on: WM3248 melanoma cells, 486 antibodies
Assay: Reverse phase protein arrays (RPPA)
Type: cell-based, Human
Text: Pellets were snap frozen in liquid nitrogen and shipped to MD Anderson Cancer Center core RPPA facility for RPPA analysis (Table S5). Three biological replicates for each sample were generated.
Nomenclatures on the RPPA heatmaps: name_of_antibody.species_of_antibody.status_of_antibody. V - antibody validated; C - validation of antibody in progress; Q - antibody nonspecific; E – under evaluation; antibodies raised in M - mouse, G - goat, R - rabbit, or T - rat.

CN(C)c1cccc(Nc2cc(-c3ccccc3)nc(C3CCNCC3)n2)c1 [ARN22089, N1,N1-dimethyl-N3-(6-phenyl-2-(piperidin-4-yl)pyrimidin-4-yl)benzene-1,3-diamine]
Merlin.R.C Norm_20 Average (level 20 vs 0): 1.326 | Midkine.R.V Norm_20 Average (level 20 vs 0): 0.903 | Mitofusin.1.R.V Norm_20 Average (level 20 vs 0): 0.924 | Mitofusin.2.R.V Norm_20 Average (level 20 vs 0): 0.929 | Mnk1.R.V Norm_20 Average (level 20 vs 0): 0.909 | mTOR.R.V Norm_20 Average (level 20 vs 0): 0.966 | mTOR_pS2448.R.C Norm_20 Average (level 20 vs 0): 0.981 | HLA.DQA1.R.V Norm_20 (level 20 vs 0, replicates): 0.920 | HLA.DR.DP.DQ.DX.R.C Norm_20 (level 20 vs 0, replicates): 1.294 and 1.162 | HMHA1.R.V Norm_20 (level 20 vs 0, replicates): 0.981 and 0.880 and 1.188 | HNRNPK.R.V Norm_20 (level 20 vs 0, replicates): 0.984 and 1.119 and 0.871 | HSP27.M.C Norm_20 (level 20 vs 0, replicates): 0.670 and 0.856 and 0.906 | HSP27_pS82.R.V Norm_20 (level 20 vs 0, replicates): 0.842 and 0.885 and 1.155 | HSP60.R.V Norm_20 (level 20 vs 0, replicates): 1.130 and 0.832 and 1.026 | HSP70.R.C Norm_20 (level 20 vs 0, replicates): 1.062 and 1.459 | Hexokinase.I.R.C Norm_20 (level 20 vs 0, replicates): 1.110 and 1.189 and 1.305 | Hexokinase.II.R.V Norm_20 (level 20 vs 0, replicates): 1.291 and 0.878 and 1.104 | Hif.1αR.C Norm_20 (level 20 vs 0, replicates): 1.195 and 0.879 and 1.078 | Histone.H3.R.V Norm_20 (level 20 vs 0, replicates): 1.827 and 15.369 and 0.615 | Histone.H3_pS10.R.V Norm_20 (level 20 vs 0, replicates): 1.077 and 5.500 and 0.823 | IDO.R.C Norm_20 (level 20 vs 0, replicates): 0.970 and 0.836 | IGF1R_pY1135_Y1136.R.V Norm_20 (level 20 vs 0, replicates): 1.013 and 0.925 | IGFBP2.R.V Norm_20 (level 20 vs 0, replicates): 1.100 and 0.958 and 1.153 | IGFBP3.M.V Norm_20 (level 20 vs 0, replicates): 0.795 and 0.982 | IGFRb.R.C Norm_20 (level 20 vs 0, replicates): 1.223 and 1.234 | IL.6.R.C Norm_20 (level 20 vs 0, replicates): 0.955 (2×) and 1.003 | IMP3.R.C Norm_20 (level 20 vs 0, replicates): 0.919 and 1.030 and 0.952 | INPP4b.R.C Norm_20 (level 20 vs 0, replicates): 0.903 and 0.986 | IR.b.R.C Norm_20 (level 20 vs 0, replicates): 1.018 and 0.967 and 1.220 | IRF.1.R.V Norm_20 (level 20 vs 0, replicates): 0.991 and 0.831 and 1.052 | IRF.3.R.V Norm_20 (level 20 vs 0, replicates): 0.860 and 0.878 and 0.910 | IRS1.R.V Norm_20 (level 20 vs 0, replicates): 1.064 and 1.027 and 1.060 | IRS2.R.C Norm_20 (level 20 vs 0, replicates): 1.529 and 1.065 | JAB1.M.C Norm_20 (level 20 vs 0, replicates): 0.904 and 0.945 and 1.061 | JNK2.R.V Norm_20 (level 20 vs 0, replicates): 0.750 and 1.506 | JNK_pT183_Y185.R.C Norm_20 (level 20 vs 0, replicates): 1.059 and 0.941 and 1.008 | Jagged1.R.V Norm_20 (level 20 vs 0, replicates): 1.035 and 0.964 and 1.085 | Jak2.R.V Norm_20 (level 20 vs 0, replicates): 1.132 and 0.972 and 1.009 | KAP1.R.V Norm_20 (level 20 vs 0, replicates): 1.259 and 0.970 and 1.549 | KEAP1.R.V Norm_20 (level 20 vs 0, replicates): 1.169 and 0.932 and 0.897 | LAD1.R.V Norm_20 (level 20 vs 0, replicates): 0.881 and 0.761 and 1.249 | LC3A.B.R.C Norm_20 (level 20 vs 0, replicates): 1.429 and 1.134 and 1.161 | LCN2.R.V Norm_20 (level 20 vs 0, replicates): 2.531 and 1.008 and 1.326 | LDHA.R.C Norm_20 (level 20 vs 0, replicates): 0.857 and 1.499 and 2.319 | LRP6_pS1490.R.V Norm_20 (level 20 vs 0, replicates): 1.001 | Lasu1.R.V Norm_20 (level 20 vs 0, replicates): 1.199 and 1.294 | Lck.R.V Norm_20 (level 20 vs 0, replicates): 1.370 and 1.163 and 1.379 | Lyn.R.V Norm_20 (level 20 vs 0, replicates): 0.892 and 1.140 and 1.052 | MACC1.R.V Norm_20 (level 20 vs 0, replicates): 0.920 and 0.933 | MAPK_pT202_Y204.R.C Norm_20 (level 20 vs 0, replicates): 0.833 and 0.402 and 0.466 | MCT4.R.V Norm_20 (level 20 vs 0, replicates): 1.030 and 0.799 and 1.149 | MDM2_pS166.R.V Norm_20 (level 20 vs 0, replicates): 1.426 and 1.478 and 1.290 | MEK1.R.V Norm_20 (level 20 vs 0, replicates): 1.117 and 2.580 | MEK1_pS217_S221.R.V Norm_20 (level 20 vs 0, replicates): 0.743 and 0.841 and 1.347 | MEK2.R.V Norm_20 (level 20 vs 0, replicates): 0.956 and 1.186 | MERIT40.R.C Norm_20 (level 20 vs 0, replicates): 0.841 and 0.749 and 1.150 | MERIT40_pS29.R.V Norm_20 (level 20 vs 0, replicates): 0.968 and 0.879 and 1.231 | METTL3.R.V Norm_20 (level 20 vs 0, replicates): 1.164 and 1.324 and 1.250 | MIF.R.C Norm_20 (level 20 vs 0, replicates): 0.869 and 0.900 and 0.906 | MIG6.R.V Norm_20 (level 20 vs 0, replicates): 0.893 and 0.926 and 0.901 | MITF.R.V Norm_20 (level 20 vs 0, replicates): 1.001 and 1.191 and 1.081 | MLH1.M.V Norm_20 (level 20 vs 0, replicates): 0.708 and 0.840 and 1.119 | MLKL.R.V Norm_20 (level 20 vs 0, replicates): 0.758 and 0.733 | MMP2.R.V Norm_20 (level 20 vs 0, replicates): 0.895 and 0.974 and 0.934 | MMP14.R.V Norm_20 (level 20 vs 0, replicates): 1.924 and 1.667 and 1.374 | MR1.M.C Norm_20 (level 20 vs 0, replicates): 0.871 and 1.118 and 0.973 | MRAP.R.C Norm_20 (level 20 vs 0, replicates): 1.035 and 1.214 and 1.082 | MSH2.R.C Norm_20 (level 20 vs 0, replicates): 0.839 and 0.919 and 1.059 | MSH6.R.C Norm_20 (level 20 vs 0, replicates): 1.343 and 1.387 and 1.258 | MSI2.R.C Norm_20 (level 20 vs 0, replicates): 1.362 and 1.019 | MTCO1.M.V Norm_20 (level 20 vs 0, replicates): 1.305 and 0.956 and 1.145 | MTSS1.M.C Norm_20 (level 20 vs 0, replicates): 0.841 and 1.006 and 0.964 | Mcl.1.R.V Norm_20 (level 20 vs 0, replicates): 0.748 and 0.609 and 0.905 | MelanA.R.C Norm_20 (level 20 vs 0, replicates): 1.030 and 0.993 and 1.051 | Melanoma.gp100.R.C Norm_20 (level 20 vs 0, replicates): 1.080 and 0.890 | Merlin.R.C Norm_20 (level 20 vs 0, replicates): 1.344 and 1.329 and 1.306 | Midkine.R.V Norm_20 (level 20 vs 0, replicates): 0.858 and 0.901 | Mitofusin.1.R.V Norm_20 (level 20 vs 0, replicates): 0.931 and 0.783 and 1.058 | Mitofusin.2.R.V Norm_20 (level 20 vs 0, replicates): 0.808 and 0.772 and 1.206 | Mnk1.R.V Norm_20 (level 20 vs 0, replicates): 0.936 and 0.820 and 0.972 | mTOR.R.V Norm_20 (level 20 vs 0, replicates): 0.878 and 0.940 and 1.079 | mTOR_pS2448.R.C Norm_20 (level 20 vs 0, replicates): 0.856 and 0.896 and 1.190
